Measurements published in PMC8456950, “Structure‐Guided Design of G‐Protein‐Coupled Receptor Polypharmacology” (Angewandte Chemie (International Ed. in English), 2021).

How the values were obtained:
D4R = target: T1, D4R (Homo sapiens, UniProt P21917, DEL265-296); assay: D4R competition binding ([3H]-spiperone); details: for Ki: mean±SEM of two experiments in duplicate, read-out: D4R binding affinity Ki; for inhibition at 10 µM: 2 h, 10 µM compound, n=2, read-out: D4R % displacement at 10 µM
T1 sequence (P21917 with tags, fused parts or gaps DEL265-296): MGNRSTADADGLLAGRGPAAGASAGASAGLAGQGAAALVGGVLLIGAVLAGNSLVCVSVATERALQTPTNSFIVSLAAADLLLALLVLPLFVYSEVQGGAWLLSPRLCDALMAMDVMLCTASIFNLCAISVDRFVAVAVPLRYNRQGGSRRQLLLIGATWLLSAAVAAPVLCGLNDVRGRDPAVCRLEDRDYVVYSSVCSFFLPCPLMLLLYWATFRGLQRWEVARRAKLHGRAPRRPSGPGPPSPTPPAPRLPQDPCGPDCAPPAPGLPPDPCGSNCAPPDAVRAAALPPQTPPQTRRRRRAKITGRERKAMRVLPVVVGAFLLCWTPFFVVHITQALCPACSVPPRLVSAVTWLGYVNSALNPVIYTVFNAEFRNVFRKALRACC
Protocol: D4R competition binding experiments were carried out in polypropylene 96 -well plate s. Each well contained 35 µg of membranes from a CHO-D4R cell line (Perkin Elmer, RBHD42M400U A, protein concentration=14000 µg/ml), 1 nM [3H]-spiperone (68 Ci/mmol, 1 mCi/ml, Perkin Elmer NET1187001MC), and the compound studied. Non-specific binding was determined in the presence of 25 µM haloperidol (Sigma H1512). The reaction mixture (250 µl/well) was incubated at 27 °C for 120 min, after which 200 µL was transferred to GF/C 96-well plates (Millipore, Madrid, Spain) pretreated with 0.5% PEI and treated with binding buffer (50 mM Tris-HCl, 1 mM EDTA, 5 mM MgCl2, 5 mM KCl, 120 mM NaCl, pH=7.4). The samples were filtered and washed f our times with 250 µl wash buffer (50 mM Tris-HCl, 0.9% NaCl, pH=7.4) before measuring in a microplate beta scintillation counter (Microbeta Trilux, PerkinElmer, Madrid, Spain). Two independent experiments were carried out to calculate Ki values (n=2). […]

Human A2AAR = Human A2AAR (Homo sapiens, UniProt P29274); assay: A2AAR competition binding ([3H]-ZM241385 displacement); set-up: expressed in transfected cells; host or cells: HeLa-A2AAR cell line (membranes); details: radioligand displacement, mean±SEM of three experiments in duplicate; read-out: A2AAR binding affinity Ki
Chain of Human A2AAR (P29274 whole entry): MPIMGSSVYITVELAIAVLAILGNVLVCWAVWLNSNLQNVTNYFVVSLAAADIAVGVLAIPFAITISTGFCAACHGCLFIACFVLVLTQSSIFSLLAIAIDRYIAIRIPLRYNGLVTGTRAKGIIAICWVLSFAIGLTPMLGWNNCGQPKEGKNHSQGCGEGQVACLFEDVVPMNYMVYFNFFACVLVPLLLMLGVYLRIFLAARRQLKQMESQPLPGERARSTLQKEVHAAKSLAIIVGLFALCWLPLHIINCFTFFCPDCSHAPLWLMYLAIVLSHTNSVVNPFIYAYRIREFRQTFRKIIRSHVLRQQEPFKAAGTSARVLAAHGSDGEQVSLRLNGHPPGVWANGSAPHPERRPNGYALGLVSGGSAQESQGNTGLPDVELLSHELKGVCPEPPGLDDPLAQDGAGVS
Protocol: Binding assays. Human A2AAR competition binding experiments were carried out in multiscreen GF/C 96-well plates (Millipore, Madrid, Spain) pretreated with binding buffer (50 mM Tris-HCl, 1 mM EDTA, 10 mM MgCl2, 2 U/ml adenosine deaminase, pH=7.4).
Each well contained 5 µg of membranes from a He l a-A2AAR cell line (protein concentration […]
compound studied. Non-specific binding was determined in the presence of 50 µM NE C A (Sigma E2387). The reaction mixture (200 µl/well) was incubated at 25 °C for 30 min, after which it was filtered and washed four times with 250 µl wash buffer (50 mM Tris -HCl, 1 mM EDTA, 10 mM MgCl 2, pH=7. 4) before measuring in a microplate beta scintillation counter (Microbeta Trilux, PerkinElmer, Madrid, Spain). Three independent experiments were carried out to calculate K i values (n=3). […]

Human D2R = target: T2, Human D2R (Homo sapiens, UniProt P14416); assay: D2R competition binding ([3H]-spiperone displacement); details: radioligand displacement, mean±SEM of three experiments in duplicate; read-out: D2R binding affinity Ki
T2 construct: expressed in transfected cells; host or cells: CHO-D2R #S20 cell line (membranes)
T2 sequence (P14416 whole entry): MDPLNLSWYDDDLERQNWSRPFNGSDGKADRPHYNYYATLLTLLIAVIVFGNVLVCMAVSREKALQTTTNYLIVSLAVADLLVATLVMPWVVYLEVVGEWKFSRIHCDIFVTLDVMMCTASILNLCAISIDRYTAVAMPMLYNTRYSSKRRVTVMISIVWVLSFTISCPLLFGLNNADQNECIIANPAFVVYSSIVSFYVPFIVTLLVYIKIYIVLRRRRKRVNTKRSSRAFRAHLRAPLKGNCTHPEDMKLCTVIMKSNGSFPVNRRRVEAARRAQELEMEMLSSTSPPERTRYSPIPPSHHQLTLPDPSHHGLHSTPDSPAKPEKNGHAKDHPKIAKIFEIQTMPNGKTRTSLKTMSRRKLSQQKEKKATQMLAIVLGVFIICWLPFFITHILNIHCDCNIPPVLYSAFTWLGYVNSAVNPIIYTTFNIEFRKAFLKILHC
Protocol: Human D2R competition binding experiments w ere carried out in polypropylene 96-well plates. Each well contained 10 µg of membranes from a CHO-D2R #S20 cell line (protein concentration of 3241 µg/ml), 0.4 nM [3H]-spiperone (80. 2 Ci/mmol, 1 mCi/ml, Perkin […]
The reaction mixture (250 µl/well) was incubated at 25°C for 120 min , after which 200 µL was transferred to a GF/C 96 -well plate (Millipore, Madrid, Spain) pretreated with 0. 5% of PEI and treated with binding buffer (50 mM Tris-HCl, 1 mM EDTA, 5 mM MgCl2, 5 mM KCl, 120 mM NaCl, pH=7.4). The […]
samples were filtered and washed four times with 250 µl wash buffer (50 mM Tris-HCl, 0.9% NaCl, pH=7.4) before measuring in a microplate beta scintillation counter (Microbeta Trilux, PerkinElmer, Madrid, Spain). Three independent exp eriments were carried out to calculate Ki values (n=3). […]

H1R = target: T3, H1R (Homo sapiens, UniProt P35367); assay: H1R competition binding ([3H]pyrilamine); details: for H1R % displacement at 10 µM: 10 µM compound, n=2
T3 construct: expressed in transfected cells; host or cells: CHO-H1R cell line (membranes)
T3 sequence (P35367 whole entry, species assumed): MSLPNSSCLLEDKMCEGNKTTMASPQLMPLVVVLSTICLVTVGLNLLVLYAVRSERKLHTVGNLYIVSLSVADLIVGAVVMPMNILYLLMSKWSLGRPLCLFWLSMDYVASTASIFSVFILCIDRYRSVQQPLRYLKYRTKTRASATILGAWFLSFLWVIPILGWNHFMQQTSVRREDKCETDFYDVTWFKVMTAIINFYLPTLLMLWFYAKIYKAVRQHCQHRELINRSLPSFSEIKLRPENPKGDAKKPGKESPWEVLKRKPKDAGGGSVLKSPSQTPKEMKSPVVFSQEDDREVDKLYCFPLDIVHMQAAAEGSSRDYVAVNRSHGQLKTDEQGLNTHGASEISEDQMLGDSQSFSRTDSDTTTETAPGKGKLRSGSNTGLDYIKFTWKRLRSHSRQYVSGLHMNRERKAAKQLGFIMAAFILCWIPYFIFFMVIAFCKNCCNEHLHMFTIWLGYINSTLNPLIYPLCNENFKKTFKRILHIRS
Protocol: H1R competition binding experiments were carried out in polypropylene 96-well plates. Each well contained 50 µg of membranes from a CHO-H1R cell line (protein concentration=3860 µg/ml), 4 nM [3H]pyrilamine (20. 1 Ci/mmol, 1 mCi/ml, Perkin Elmer NET594250UC ), and the compound studied. Non-specific binding was determined in the presence of 10 µM triprolidine (T6764, Sigma Aldrich). The reaction mixture (250 µl/well) was incubated at 27 °C for 60 min, after which 200 µL was transferred to GF/B 96 -well plates (Millipore, Madrid, Spain) pretreated with 0. 1% Tween 20 and assay b uffer (Na+ / K+ phosphate buffer pH=7. 4).
The samples were then filtered and washed fou r times with 250 µl wash buffer (Na+/K+ phosphate buffer, pH=7.4), after which 30 µL Universol (MP Biomedicals, Spain) was added […]
and measurements were performed in a microplate beta scintillation counter (Microbeta Trilux, PerkinElmer, Madrid, Spain). Two independent experiments were carried out to calculate Ki values (n=2).
Data were adjusted to non-linear fitting by using Prism V2.1 (GraphPad Inc, Chicago, USA) and Ki values were calculated by using the Cheng-Prusoff equation25. […]
KB=I C50/(1+([NECA]/EC50 NECA)). […]

Compound | Ki (D4R) [nM] | Ki (Human A2AAR) [nM] | Ki (Human D2R) [nM] | inhibition at 10 µM (D4R) [%] | H1R % displacement at 10 µM (H1R) [%] | Ki (H1R; mean±SEM of two experiments in duplicate, read-out: H1R binding affinity Ki) [nM]
CCCN(CCCCC(=O)Nc1nc2c(OC)cccc2s1)C1Cc2ccccc2C1 [Compound 26] | 700 ± 80 | 610 ± 90 | 230 ± 20 | – | – | –
CCCN(CCCCC(=O)Nc1nc2c(OC)ccc(OC)c2s1)C1Cc2ccccc2C1 [Compound 30] | > 10000 | 160 ± 30 | 370 ± 30 | 19 ± 4 | 40 ± 3 | > 10000
CCCN(CCCCC(=O)Nc1nc2c(Br)cccc2s1)C1Cc2ccccc2C1 [Compound 27] | – | 390 ± 50 | 530 ± 180 | 27 ± 4 | 40 ± 1 | –
CCN(CCCCC(=O)Nc1nc2c(Br)cccc2s1)C1Cc2ccccc2C1 [Compound 22] | – | 340 ± 50 | 340 ± 40 | 19 ± 1 | 12 ± 3 | –
